In ChEMBL document CHEMBL5030523, “Mechanisms of the Antiproliferative and Antitumor Activity of Novel Telomerase-Carbonic Anhydrase Dual-Hybrid Inhibitors” (J Med Chem, 2021):
pIC50, pKi: −log10 of the molar value. Active and inactive are the calls of the source. The rule behind the calls is not given here.

How the values were obtained:
COLO 205 [1] = test: Cell cycle arrest in human COLO 205 cells assessed as accumulation at G2/M phase at 30 uM incubated for 56 days by propidium iodide staining based flow cytometry analysis (reference value: 16.01 %); assay type: functional; conditions: time 56 day
COLO 205 [2] = test: Cell cycle arrest in human COLO 205 cells assessed as accumulation G2/M phase incubated for 24 hrs by propidium iodide staining based flow cytometry analysis (reference value: 0.79 %); assay type: functional
[3] = target: T1, Telomerase reverse transcriptase (Homo sapiens, UniProt O14746); test: Inhibition of telomerase in human SW-620 cells by TRAP assay; assay type: cell-based
COLO 205 [4] = test: Induction of apoptosis in human COLO 205 cells assessed as necrotic cells incubated for 24 hrs by Annexin V/FITC and PI staining based flow cytometry analysis (reference value: 0.14 %); assay type: functional
COLO 205 [5] = test: Cell cycle arrest in human COLO 205 cells assessed as accumulation at G2/M phase at 30 uM incubated for 44 days by propidium iodide staining based flow cytometry analysis (reference value: 15.12 %); assay type: functional; conditions: time 44 day
COLO 205 [6] = test: Cell cycle arrest in human COLO 205 cells assessed as accumulation at S phase at 30 uM incubated for 44 days by propidium iodide staining based flow cytometry analysis (reference value: 2.25 %); assay type: functional; conditions: time 44 day
[7] = target: Carbonic anhydrase 5B, mitochondrial (Homo sapiens, UniProt Q9Y2D0); test: Inhibition of human carbonic anhydrase 5B by stopped-flow CO2 hydration assay
COLO 205 [8] = test: Induction of cell senescence in human COLO 205 cells assessed by increase SA-beta-Gal activity measured after 44 to 56 days; assay type: functional, cell-based; conditions: time 44-56 day
COLO 205 [9] = test: Induction of apoptosis in human COLO 205 cells assessed as late apoptotic cells incubated for 44 days by Annexin V/FITC and PI staining based flow cytometry analysis (reference value: 1.35 %); assay type: functional; conditions: time 44 day
COLO 205 [10] = test: Cell cycle arrest in human COLO 205 cells assessed as accumulation G2/M phase incubated for 12 hrs by propidium iodide staining based flow cytometry analysis (reference value: 0.79 %); assay type: functional
COLO 205 [11] = test: Induction of apoptosis in human COLO 205 cells assessed as necrotic cells incubated for 12 hrs by Annexin V/FITC and PI staining based flow cytometry analysis (reference value: 0.14 %); assay type: functional
COLO 205 [12] = test: Effect on TERC mRNA expression in human COLO 205 cells measured after 72 hrs by qRT-PCR analysis; assay type: functional, cell-based
COLO 205 [13] = test: Cell cycle arrest in human COLO 205 cells assessed as accumulation at G0/G1 phase incubated for 12 hrs by propidium iodide staining based flow cytometry analysis (reference value: 58.82 %); assay type: functional
[14] = target: T1, Telomerase reverse transcriptase; test: Inhibition of telomerase in human COLO 205 cell lysate at 10 uM by TRAP assay relative to control; assay type: subcellular
COLO 205 [15] = test: Cell cycle arrest in human COLO 205 cells assessed as accumulation at S phase at 30 uM incubated for 56 days by propidium iodide staining based flow cytometry analysis (reference value: 4.92 %); assay type: functional; conditions: time 56 day
[16] = target: T1, Telomerase reverse transcriptase; test: Inhibition of telomerase in human COLO 205 cells by TRAP assay; assay type: cell-based
COLO 205 [17] = test: Induction of apoptosis in human COLO 205 cells assessed as viable cells incubated for 44 days by Annexin V/FITC and PI staining based flow cytometry analysis (reference value: 94.05 %); assay type: functional; conditions: time 44 day
Carbonic anhydrase 1 = Carbonic anhydrase 1 (Homo sapiens, UniProt P00915); test: Inhibition of human carbonic anhydrase 1 by stopped-flow CO2 hydration assay
[18] = target: Carbonic anhydrase 5A, mitochondrial (Homo sapiens, UniProt P35218); test: Inhibition of human carbonic anhydrase 5A by stopped-flow CO2 hydration assay
COLO 205 [19] = test: Induction of cell cycle arrest in human COLO 205 cells assessed as decrease in number of cells in G2/M phase incubated for 44 to 56 days by propidium iodide staining based flow cytometry analysis; assay type: functional; conditions: time 44-56 day
COLO 205 [20] = test: Cell cycle arrest in human COLO 205 cells assessed as accumulation at G0/G1 phase at 30 uM incubated for 44 days by propidium iodide staining based flow cytometry analysis (reference value: 77.02 %); assay type: functional; conditions: time 44 day
[21] = target: T1, Telomerase reverse transcriptase; test: Inhibition of telomerase in human SW-620 cells after 72 hrs by TRAP gel electrophoresis; assay type: cell-based
COLO 205 [22] = test: Cell cycle arrest in human COLO 205 cells assessed as accumulation at G0/G1 phase at 30 uM incubated for 56 days by propidium iodide staining based flow cytometry analysis (reference value: 72.81 %); assay type: functional; conditions: time 56 day
COLO 205 [23] = test: Induction of apoptosis in human COLO 205 cells assessed as viable cells incubated for 24 hrs by Annexin V/FITC and PI staining based flow cytometry analysis (reference value: 71.63 %); assay type: functional
COLO 205 [24] = test: Induction of apoptosis in human COLO 205 cells assessed as necrotic cells incubated for 56 days by Annexin V/FITC and PI staining based flow cytometry analysis (reference value: 0.2 %); assay type: functional; conditions: time 56 day
COLO 205 [25] = test: Cell cycle arrest in human COLO 205 cells assessed as accumulation S phase incubated for 12 hrs by propidium iodide staining based flow cytometry analysis (reference value: 0.48 %); assay type: functional
COLO 205 [26] = test: Induction of apoptosis in human COLO 205 cells assessed as early apoptotic cells incubated for 12 hrs by Annexin V/FITC and PI staining based flow cytometry analysis (reference value: 14.75 %); assay type: functional
COLO 205 [27] = test: Antiproliferative activity against human COLO 205 cells assessed as cell viability at 100 uM measured after 72 hrs by MTT assay; assay type: functional; conditions: read-out: Activity
COLO = test: In vivo inhibition of telomerase in BALB/c mouse xenografted with human COLO 205 cells at 50 mg/kg, sc relative to control; assay type: functional, organism-based
COLO 205 [28] = test: Induction of apoptosis in human COLO 205 cells assessed as late apoptotic cells incubated for 12 hrs by Annexin V/FITC and PI staining based flow cytometry analysis (reference value: 13.48 %); assay type: functional
COLO 205 [29] = test: Induction of apoptosis in human COLO 205 cells assessed as viable cells incubated for 12 hrs by Annexin V/FITC and PI staining based flow cytometry analysis (reference value: 71.63 %); assay type: functional
[30] = target: T1, Telomerase reverse transcriptase; test: Non-competitive inhibition of telomerase (unknown origin) assessed as decrease in Km at 1 uM using […] by Michaelis-Menten analysis relative to control; conditions: COLO 205
[31] = target: T1, Telomerase reverse transcriptase; test: Inhibition of telomerase in human COLO 205 cells assessed as shortening of telomere length at 30 uM by measured after 56 days qPCR relative to control; assay type: cell-based; conditions: time 56.0 day
COLO 205 [32] = test: Induction of apoptosis in human COLO 205 cells assessed as early apoptotic cells incubated for 24 hrs by Annexin V/FITC and PI staining based flow cytometry analysis (reference value: 14.75 %); assay type: functional
[33] = target: T1, Telomerase reverse transcriptase; test: Inhibition of telomerase in human HCT-116 cells by TRAP assay; assay type: cell-based
COLO 205 [34] = test: Induction of cell cycle arrest in human COLO 205 cells assessed as decrease in number of cells in S phase incubated for 44 to 56 days by propidium iodide staining based flow cytometry analysis; assay type: functional; conditions: time 44-56 day
COLO 205 [35] = test: Induction of apoptosis in human COLO 205 cells assessed as viable cells incubated for 56 days by Annexin V/FITC and PI staining based flow cytometry analysis (reference value: 94.61 %); assay type: functional; conditions: time 56 day

T1 sequence (O14746 whole entry): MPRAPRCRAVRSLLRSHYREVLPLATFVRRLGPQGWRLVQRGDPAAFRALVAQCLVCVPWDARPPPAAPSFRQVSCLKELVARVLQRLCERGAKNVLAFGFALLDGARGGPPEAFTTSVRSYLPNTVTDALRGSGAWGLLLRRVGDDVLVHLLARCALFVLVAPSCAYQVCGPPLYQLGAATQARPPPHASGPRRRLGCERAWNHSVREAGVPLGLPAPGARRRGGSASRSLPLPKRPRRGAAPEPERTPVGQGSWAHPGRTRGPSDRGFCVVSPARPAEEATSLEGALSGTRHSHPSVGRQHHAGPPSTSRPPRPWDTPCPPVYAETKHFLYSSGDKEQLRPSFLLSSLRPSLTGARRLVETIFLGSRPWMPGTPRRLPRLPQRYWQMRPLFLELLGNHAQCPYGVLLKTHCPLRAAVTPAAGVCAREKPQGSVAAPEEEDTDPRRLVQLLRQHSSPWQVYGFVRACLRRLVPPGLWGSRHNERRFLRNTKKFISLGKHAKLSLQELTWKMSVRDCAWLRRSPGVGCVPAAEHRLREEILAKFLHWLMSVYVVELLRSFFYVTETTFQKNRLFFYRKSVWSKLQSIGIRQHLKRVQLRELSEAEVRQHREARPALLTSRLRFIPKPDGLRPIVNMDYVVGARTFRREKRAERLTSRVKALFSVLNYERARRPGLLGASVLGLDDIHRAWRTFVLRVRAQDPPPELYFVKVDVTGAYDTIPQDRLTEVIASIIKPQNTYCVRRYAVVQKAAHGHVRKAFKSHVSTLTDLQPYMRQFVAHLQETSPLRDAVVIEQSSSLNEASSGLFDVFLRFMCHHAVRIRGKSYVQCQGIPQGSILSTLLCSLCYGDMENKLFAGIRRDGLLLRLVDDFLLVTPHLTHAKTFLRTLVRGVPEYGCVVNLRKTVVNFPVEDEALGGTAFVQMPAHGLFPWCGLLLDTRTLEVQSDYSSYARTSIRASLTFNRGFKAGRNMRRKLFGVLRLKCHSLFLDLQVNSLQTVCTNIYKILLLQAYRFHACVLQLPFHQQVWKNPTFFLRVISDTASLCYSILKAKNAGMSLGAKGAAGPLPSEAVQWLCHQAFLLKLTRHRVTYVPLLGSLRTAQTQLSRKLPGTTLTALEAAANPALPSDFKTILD
Carbonic anhydrase 5B, mitochondrial, sequence (Q9Y2D0 whole entry): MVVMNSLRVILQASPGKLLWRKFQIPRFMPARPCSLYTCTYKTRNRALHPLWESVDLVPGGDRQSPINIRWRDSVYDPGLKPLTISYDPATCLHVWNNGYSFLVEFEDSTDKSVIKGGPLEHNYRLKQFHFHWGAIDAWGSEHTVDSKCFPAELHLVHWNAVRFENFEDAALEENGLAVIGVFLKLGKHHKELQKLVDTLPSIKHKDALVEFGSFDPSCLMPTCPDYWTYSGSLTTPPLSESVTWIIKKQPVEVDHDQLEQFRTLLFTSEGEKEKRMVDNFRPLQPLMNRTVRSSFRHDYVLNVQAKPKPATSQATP
Carbonic anhydrase 5A, mitochondrial, sequence (P35218 whole entry): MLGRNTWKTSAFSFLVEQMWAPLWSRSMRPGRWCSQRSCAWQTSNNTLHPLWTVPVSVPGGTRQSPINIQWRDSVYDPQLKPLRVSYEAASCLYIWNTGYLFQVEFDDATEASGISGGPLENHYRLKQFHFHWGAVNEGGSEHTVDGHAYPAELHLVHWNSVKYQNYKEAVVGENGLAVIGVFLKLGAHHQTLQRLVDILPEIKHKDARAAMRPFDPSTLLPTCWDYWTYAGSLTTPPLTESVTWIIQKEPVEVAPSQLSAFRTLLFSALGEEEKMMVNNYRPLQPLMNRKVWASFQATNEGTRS
Carbonic anhydrase 1, sequence (P00915 whole entry): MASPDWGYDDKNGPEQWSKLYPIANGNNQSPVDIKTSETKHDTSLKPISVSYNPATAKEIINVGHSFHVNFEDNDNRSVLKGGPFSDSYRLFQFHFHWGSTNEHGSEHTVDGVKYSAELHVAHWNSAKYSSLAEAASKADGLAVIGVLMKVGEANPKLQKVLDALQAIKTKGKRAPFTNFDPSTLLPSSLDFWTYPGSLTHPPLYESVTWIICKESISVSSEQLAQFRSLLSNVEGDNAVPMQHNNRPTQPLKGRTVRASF

pIC50 [3] | IC90 [3] [µM] | pKi [7] | inhibition [14] [%] | pIC50 [16] | IC90 [16] [µM] | pKi (Carbonic anhydrase 1) | Structure (SMILES) | Activity (COLO 205 [1]) [%] | Activity (COLO 205 [2]) [%] | Activity (COLO 205 [4]) [%] | Activity (COLO 205 [5]) [%] | Activity (COLO 205 [6]) [%] | Activity (COLO 205 [8]) | Activity (COLO 205 [9]) [%] | Activity (COLO 205 [10]) [%] | Activity (COLO 205 [11]) [%] | Activity (COLO 205 [12]) | Activity (COLO 205 [13]) [%] | Activity (COLO 205 [15]) [%] | Activity (COLO 205 [17]) [%] | other results
5.52 | 35.1 | 7.32 | > 70 | 6.05 | 9.1 | 6.54 | Cc1cn([C@H]2C[C@@H](n3cc(CNC(=O)Nc4cccc(S(N)(=O)=O)c4)nn3)[C@@H](CO)O2)c(=O)[nH]c1=O | 1.19 | 11.94 | 0.14 | 1.32 | 0.56 | Active | 23.57 | 9.6 | 0.14 | inactive | 87.83 | 0.51 | 62.43 | pKi [18]: 5.49; Activity (COLO 205 [19]): Active; Activity (COLO 205 [20]): 55.82%; inhibition [21]: Dose-Dependent Effect; Activity (COLO 205 [22]): 34.74%; Activity (COLO 205 [23]): 94.91%; Activity (COLO 205 [24]): 1.47%; Activity (COLO 205 [25]): 2.52%; Activity (COLO 205 [26]): 12.33%; viability at 100 µM (COLO 205 [27]): 74.9%; inhibition (COLO): Active; Activity (COLO 205 [28]): 6.23%; Activity (COLO 205 [29]): 81.3%; fold change (FC) [30]: 3.4; inhibition [31]: 4.5%; Activity (COLO 205 [32]): 3.09%; pIC50 [33]: 6.07; IC90 [33]: 10.2 µM; Activity (COLO 205 [34]): Active; Activity (COLO 205 [35]): 5.76%
5.07 | 33.2 | 7.27 | > 70 | 5.23 | 29.1 | 7.55 | Cc1cn([C@H]2C[C@@H](n3cc(COC(=O)c4ccc(S(N)(=O)=O)cc4)nn3)[C@@H](CO)O2)c(=O)[nH]c1=O | 1.37 | 15.55 | 0.12 | 0.74 | 0.59 | Active | 12.74 | 10.85 | 0.13 | inactive | 67.28 | 0.96 | 76.55 | pKi [18]: 5.32; Activity (COLO 205 [19]): Active; Activity (COLO 205 [20]): 60.31%; inhibition [21]: Dose-Dependent Effect; Activity (COLO 205 [22]): 37.46%; Activity (COLO 205 [23]): 92.93%; Activity (COLO 205 [24]): 0.94%; Activity (COLO 205 [25]): 2.48%; Activity (COLO 205 [26]): 8.27%; viability at 100 µM (COLO 205 [27]): 51.6%; inhibition (COLO): Active; Activity (COLO 205 [28]): 6.8%; Activity (COLO 205 [29]): 84.8%; fold change (FC) [30]: 2.3; inhibition [31]: 4.5%; Activity (COLO 205 [32]): 3.82%; pIC50 [33]: 5.25; IC90 [33]: 31 µM; Activity (COLO 205 [34]): Active; Activity (COLO 205 [35]): 26.64%
